ChEMBL document CHEMBL3045426, “Synthesis, Antiviral and Antibacterial Activities of Isatin Mannich Bases” (Med Chem Res, 2005)
≈ marks a conversion by molar mass, not a printed value.

Legend:
[1] = Selectivity index, ratio of CC50 for human MT4 cells to EC50 for HIV1 3B infected in MT4 cells; format: toxicity, cell-based; settings: read-out: Ratio CC50/EC50
Vibrio cholerae [2] = test: Antimicrobial activity against Vibrio cholerae 01 after 18 to 20 hr by agar dilution method; format: functional; settings: 1
Priestia megaterium = test: Antimicrobial activity against Bacillus megaterium after 18 to 20 hr by agar dilution method; format: functional
Enterobacter = test: Antimicrobial activity against Enterobacter after 18 to 20 hr by agar dilution method; format: functional
Citrobacter freundii = test: Antimicrobial activity against Citrobacter freundii after 18 to 20 hr by agar dilution method; format: functional
Salmonella enteritidis = test: Antimicrobial activity against Salmonella enterica subsp. enterica serovar Enteritidis after 18 to 20 hr by agar dilution method; format: functional
Salmonella typhimurium = test: Antimicrobial activity against Salmonella enterica subsp. enterica serovar Typhimurium after 18 to 20 hr by agar dilution method; format: functional
Proteus mirabilis = test: Antimicrobial activity against Proteus mirabilis after 18 to 20 hr by agar dilution method; format: functional
Proteus vulgaris = test: Antimicrobial activity against Proteus vulgaris after 18 to 20 hr by agar dilution method; format: functional
Edwardsiella tarda = test: Antimicrobial activity against Edwardsiella tarda after 18 to 20 hr by agar dilution method; format: functional
Escherichia coli [3] = test: Antimicrobial activity against Escherichia coli NCTC 10418 after 18 to 20 hr by agar dilution method; format: functional
Salmonella typhi = test: Antimicrobial activity against Salmonella enterica subsp. enterica serovar Typhi after 18 to 20 hr by agar dilution method; format: functional
Salmonella paratyphi = test: Antimicrobial activity against Salmonella enterica subsp. enterica serovar Paratyphi A after 18 to 20 hr by agar dilution method; format: functional
Vibrio parahaemolyticus = test: Antimicrobial activity against Vibrio parahaemolyticus after 18 to 20 hr by agar dilution method; format: functional
Vibrio cholerae [4] = test: Antimicrobial activity against Vibrio cholerae 0139 after 18 to 20 hr by agar dilution method; format: functional; settings: 139
Vibrio fluvialis = test: Antimicrobial activity against Vibrio fluvialis after 18 to 20 hr by agar dilution method; format: functional
Vibrio mimicus = test: Antimicrobial activity against Vibrio mimicus after 18 to 20 hr by agar dilution method; format: functional
Pseudomonas aeruginosa = test: Antimicrobial activity against Pseudomonas aeruginosa after 18 to 20 hr by agar dilution method; format: functional
Staphylococcus aureus = test: Antimicrobial activity against Staphylococcus aureus after 18 to 20 hr by agar dilution method; format: functional
Morganella morganii = test: Antimicrobial activity against Morganella morganii after 18 to 20 hr by agar dilution method; format: functional
Shigella boydii = test: Antimicrobial activity against Shigella boydii after 18 to 20 hr by agar dilution method; format: functional
Plesiomonas = test: Antimicrobial activity against Plesiomonas after 18 to 20 hr by agar dilution method; format: functional
Shigella sonnei = test: Antimicrobial activity against Shigella sonnei after 18 to 20 hr by agar dilution method; format: functional
Klebsiella pneumoniae [5] = test: Antimicrobial activity against Klebsiella pneumoniae after 18 to 20 hr by agar dilution method; format: functional
Klebsiella pneumoniae [6] = test: Antimicrobial activity against Klebsiella pneumoniae subsp. ozaenae after 18 to 20 hr by agar dilution method; format: functional
[7] = system: Mycobacterium tuberculosis; test: Antimycobacterial activity against Mycobacterium tuberculosis H37Rv ATCC 27294 at 6.25 ug/ml by MABA; format: functional
[8] = Cytotoxicity against Homo sapiens (human) HuH7 cells assessed as cell growth at 50 ug/ml after 3 days by Neutral red assay; format: cell-based, Huh-7; settings: read-out: Activity
[9] = Cytotoxicity against Homo sapiens (human) CEM cells after 5 days by MTT assay; format: cell-based; settings: CEM cells (CCRF-CEM)
[10] = system: Human immunodeficiency virus 1; test: Antiviral activity against Human immunodeficiency virus 1 IIIB infected CEM cells assessed as protection against viral infection after 6 days by XTT assay; format: functional, CCRF-CEM; design: concentration or dose not given beside the values
[11] = system: Human immunodeficiency virus 1; test: Antiviral activity against Human immunodeficiency virus 1 IIIB infected CEM cells assessed as inhibition of virus-induced cytopathicity after 6 days by XTT assay; format: functional, organism-based; settings: CCRF-CEM, 144 h
[12] = Cytotoxicity against Homo sapiens (human) MT4 cells after 5 days by MTT assay; format: cell-based
[13] = system: Human immunodeficiency virus 1; test: Antiviral activity against Human immunodeficiency virus 1 IIIB infected MT4 cells assessed as inhibition of virus-induced cytopathicity after 5 days by MTT assay; format: functional, organism-based; settings: MT4, 120 h
Hepatitis C virus = test: Antiviral activity against Hepatitis C virus BM4-5 infected in Huh7 cells assessed as inhibition of viral RNA replication by phosphor screening method; format: functional, Hepacivirus hominis, Huh-7
[14] = system: Human immunodeficiency virus 1; test: Antiviral activity against Human immunodeficiency virus 1 IIIB infected MT4 cells assessed as protection against viral infection after 5 days by MTT assay; format: functional; design: concentration or dose not given beside the values
Vero = test: Cytotoxicity against Chlorocebus aethiops (African green monkey) Vero cells up to 62.5 ug/ml; format: cell-based; settings: chlorocebus sabaeus
[15] = system: Mycobacterium tuberculosis; test: Antimycobacterial activity against Mycobacterium tuberculosis H37Rv ATCC 27294; format: functional
Escherichia coli [16] = test: Antibacterial activity against Escherichia coli NCTC 10418 infected in po dosed CF mouse compound administered 1 hr prior and 4 hr post infection; format: functional; settings: NCTC 10418, po

Structure (SMILES)	MIC (Vibrio cholerae [2]) [µg/mL]	MIC (Priestia megaterium) [µg/mL]	MIC (Enterobacter) [µg/mL]	MIC (Citrobacter freundii) [µg/mL]	MIC (Salmonella enteritidis) [µg/mL]	MIC (Salmonella typhimurium) [µg/mL]	MIC (Proteus mirabilis) [µg/mL]	MIC (Proteus vulgaris) [µg/mL]	MIC (Edwardsiella tarda) [µg/mL]	MIC (Salmonella typhi) [µg/mL]	MIC (Salmonella paratyphi) [µg/mL]	MIC (Vibrio parahaemolyticus) [µg/mL]	MIC (Vibrio cholerae [4]) [µg/mL]	MIC (Vibrio fluvialis) [µg/mL]	MIC (Vibrio mimicus) [µg/mL]	MIC (Pseudomonas aeruginosa) [µg/mL]	MIC (Staphylococcus aureus) [µg/mL]	MIC (Morganella morganii) [µg/mL]	MIC (Shigella boydii) [µg/mL]	MIC (Plesiomonas) [µg/mL]	also measured
COc1cc(Cc2cnc(/N=C3\C(=O)N(CN(Cc4ccccc4)Cc4ccccc4)c4ccc(Cl)cc43)nc2N)cc(OC)c1OC	1.22 (≈ 1.84 µM)	1250 (≈ 1880 µM)	625 (≈ 942 µM)	1250 (≈ 1880 µM)	625 (≈ 942 µM)	1250 (≈ 1880 µM)	625 (≈ 942 µM)	625 (≈ 942 µM)	625 (≈ 942 µM)	625 (≈ 942 µM)	625 (≈ 942 µM)	19.5 (≈ 29.4 µM)	312 (≈ 471 µM)	1250 (≈ 1880 µM)	4.88 (≈ 7.36 µM)	1250 (≈ 1880 µM)	625 (≈ 942 µM)	625 (≈ 942 µM)	1.22 (≈ 1.84 µM)	39.1 (≈ 58.9 µM)	selectivity ratio [1]: 3; MIC (Escherichia coli [3]): 625 µg/mL (≈ 942 µM); MIC (Shigella sonnei): 1250 µg/mL (≈ 1880 µM); MIC (Klebsiella pneumoniae [5]): 1250 µg/mL (≈ 1880 µM); MIC (Klebsiella pneumoniae [6]): 1250 µg/mL (≈ 1880 µM); inhibition at 6.25 µg/mL [7]: 97%; viability at 72 h, 50 ug/ml [8]: 65%; CC50 at 120 h [9]: 37.1 µg/mL (≈ 55.9 µM); Activity [10]: 20.98%; EC50 [11]: > 37.1 µg/mL; CC50 at 120 h [12]: 44.1 µg/mL (≈ 66.5 µM); EC50 [13]: 10.4 µg/mL (≈ 15.7 µM); inhibition (INH) (Hepatitis C virus): 81%; Activity [14]: 95.1%
CCN(CC)CN1C(=O)/C(=N\c2ncc(Cc3cc(OC)c(OC)c(OC)c3)c(N)n2)c2cc(Cl)ccc21	1.22 (≈ 2.26 µM)	1250 (≈ 2320 µM)	312 (≈ 580 µM)	312 (≈ 580 µM)	625 (≈ 1160 µM)	312 (≈ 580 µM)	312 (≈ 580 µM)	625 (≈ 1160 µM)	1250 (≈ 2320 µM)	1250 (≈ 2320 µM)	78.1 (≈ 145 µM)	39.1 (≈ 72.5 µM)	312 (≈ 580 µM)	625 (≈ 1160 µM)	9.76 (≈ 18.1 µM)	1250 (≈ 2320 µM)	625 (≈ 1160 µM)	625 (≈ 1160 µM)	39.1 (≈ 72.5 µM)	19.5 (≈ 36.2 µM)	selectivity ratio [1]: 3; MIC (Escherichia coli [3]): 1250 µg/mL (≈ 2320 µM); MIC (Shigella sonnei): 1250 µg/mL (≈ 2320 µM); MIC (Klebsiella pneumoniae [5]): 1250 µg/mL (≈ 2320 µM); MIC (Klebsiella pneumoniae [6]): 625 µg/mL (≈ 1160 µM); inhibition at 6.25 µg/mL [7]: 53%; viability at 72 h, 50 ug/ml [8]: 72%; CC50 at 120 h [9]: 98.4 µg/mL (≈ 183 µM); Activity [10]: 20.69%; EC50 [11]: > 98.4 µg/mL; CC50 at 120 h [12]: 79.1 µg/mL (≈ 147 µM); EC50 [13]: 23.6 µg/mL (≈ 43.8 µM); inhibition (INH) (Hepatitis C virus): 67%; Activity [14]: 64.1%
COc1cc(Cc2cnc(/N=C3\C(=O)N(CN4CCN(c5c(F)cc6c(=O)c(C(=O)O)cn(C7CC7)c6c5F)CC4C)c4ccc(Cl)cc43)nc2N)cc(OC)c1OC (configuration not stated)	0.61 (≈ 0.736 µM)	0.019 (≈ 0.0229 µM)	0.019 (≈ 0.0229 µM)	0.0095 (≈ 0.0115 µM)	0.019 (≈ 0.0229 µM)	0.0381 (≈ 0.0459 µM)	0.0763 (≈ 0.092 µM)	0.0763 (≈ 0.092 µM)	0.0763 (≈ 0.092 µM)	0.019 (≈ 0.0229 µM)	0.153 (≈ 0.184 µM)	0.0763 (≈ 0.092 µM)	0.153 (≈ 0.184 µM)	0.019 (≈ 0.0229 µM)	0.019 (≈ 0.0229 µM)	0.019 (≈ 0.0229 µM)	0.019 (≈ 0.0229 µM)	0.0381 (≈ 0.0459 µM)	0.0381 (≈ 0.0459 µM)	0.0381 (≈ 0.0459 µM)	Activity (Vero): Non-toxic; MIC [15]: 3.13 µg/mL (≈ 3.77 µM); MIC (Escherichia coli [3]): 0.0763 µg/mL (≈ 0.092 µM); MIC (Shigella sonnei): 0.152 µg/mL (≈ 0.183 µM); MIC (Klebsiella pneumoniae [5]): 2.44 µg/mL (≈ 2.94 µM); MIC (Klebsiella pneumoniae [6]): 0.0381 µg/mL (≈ 0.0459 µM); inhibition at 6.25 µg/mL [7]: 100%; CC50 at 120 h [9]: 67 µg/mL (≈ 80.8 µM); Activity [10]: 20.04%; EC50 [11]: > 67 µg/mL
O=C(O)c1cn(C2CC2)c2cc(N3CCNCC3)c(F)cc2c1=O [CIPROFLOXACIN]	0.04 (≈ 0.121 µM)	0.04 (≈ 0.121 µM)	0.04 (≈ 0.121 µM)	0.04 (≈ 0.121 µM)	0.04 (≈ 0.121 µM)	0.04 (≈ 0.121 µM)	0.04 (≈ 0.121 µM)	0.04 (≈ 0.121 µM)	0.04 (≈ 0.121 µM)	0.04 (≈ 0.121 µM)	0.04 (≈ 0.121 µM)	0.04 (≈ 0.121 µM)	0.04 (≈ 0.121 µM)	0.04 (≈ 0.121 µM)	0.04 (≈ 0.121 µM)	0.15 (≈ 0.453 µM)	0.04 (≈ 0.121 µM)	0.04 (≈ 0.121 µM)	0.04 (≈ 0.121 µM)	0.04 (≈ 0.121 µM)	ED50 (Escherichia coli [16]): 1.25 mg/kg; MIC (Shigella sonnei): 0.04 µg/mL (≈ 0.121 µM); MIC (Klebsiella pneumoniae [5]): 0.04 µg/mL (≈ 0.121 µM); MIC (Klebsiella pneumoniae [6]): 0.15 µg/mL (≈ 0.453 µM)
CCn1cc(C(=O)O)c(=O)c2cc(F)c(N3CCNC(C)C3)c(F)c21 (configuration not stated) [LOMEFLOXACIN]	0.02 (≈ 0.0569 µM)	19.5 (≈ 55.6 µM)	19.5 (≈ 55.6 µM)	19.5 (≈ 55.6 µM)	19.5 (≈ 55.6 µM)	4.88 (≈ 13.9 µM)	2.44 (≈ 6.94 µM)	0.61 (≈ 1.74 µM)	4.88 (≈ 13.9 µM)	9.77 (≈ 27.8 µM)	0.61 (≈ 1.74 µM)	39.1 (≈ 111 µM)	2.44 (≈ 6.94 µM)	1.22 (≈ 3.47 µM)	1.22 (≈ 3.47 µM)	4.88 (≈ 13.9 µM)	0.61 (≈ 1.74 µM)	1.22 (≈ 3.47 µM)	9.77 (≈ 27.8 µM)	1.22 (≈ 3.47 µM)	ED50 (Escherichia coli [16]): 1.87 mg/kg; MIC (Escherichia coli [3]): 0.61 µg/mL (≈ 1.74 µM); MIC (Shigella sonnei): 39.1 µg/mL (≈ 111 µM); MIC (Klebsiella pneumoniae [5]): 2.44 µg/mL (≈ 6.94 µM); MIC (Klebsiella pneumoniae [6]): 1.22 µg/mL (≈ 3.47 µM)
